Laboratory results as given in US20040039211A1, “Tetrapyrroles” (DUKE UNIVERSITY AND NATIONAL JEWISH MEDICAL AND RESEARCH …, priority 2000, published 2004).

Legend:
[1] = system: SOD-deficient E. coli JI132; test: Aerobic growth of SOD-deficient E. coli in minimal medium; type: cell-based
Description: FIG. 13. […] The 20 mM ethanolic/albumin solution of compound was diluted into the medium. Also the growth of SOD-deficient E. coli was followed in the presence of 0.15% ethanol only (squares).
SOD activity can be monitored in the presence and absence of EDTA using the method of McCord and Fridovich (J. Biol. Chem. 244:6049 (1969)). The efficacy of a mimetic can also be determined by measuring the effect of the mimetic on the aerobic growth of a SOD null E. coli strain versus a parent strain. Specifically, parental E. coli (AB1157) and SOD null E. coli. […]
Effects on E. coli. E. coli strains AB1157 (SOD-proficient, wild type) and JI132 (SOD-deficient, sodAsodB) were obtained from J. A. Imlay (Imlay et al, J. Bacteriol. 169:2967 (1987)). […] Cultures were treated as previously described (Faulkner et al, J. Biol. Chem. 269:23471 (1994); Benov et al, J. Biol. Chem. 273:10313 (1998)). Due to the low water solubility, the compounds were solubilized with albumin in medium at a 1:1 molar ratio. Albumin itself had no effect on growth in the concentration range employed. Since methanol was toxic to the SOD-deficient strain of E. coli even when present in medium at 0.15%, the stock solutions of the compounds were prepared in ethanol.

[2] = Degradation by H2O2 followed by uv/vis spectroscopy; type: physicochemical
From the text: Uv/vis Spectroscopy. […] Also the effects of EDTA, H2O2, and the methanol/water ratio on the stability of the manganese(III) complex were examined. […] 79:699 (1960)). When needed the biliverdin and biliverdin dimethylester as well as their reduced forms bilirubin and bilirubin dimethylester were studied. At μM concentrations, manganese(III) and iron(III) porphyrins are degraded by H2O2 in aqueous solution. pH 7.8 (Batinic-Haberle et al, Inorg. Chem. 38:4011 (1999), Everett et al, J. Trans. Faraday Soc. 49:410 (1953)). […] The reaction was followed in 90/10, v/v methanouaqueous solution at pH^* 7.9. […] The uv/vis spectroscopy indicated degradation via the reduction of biliverdin to bilirubin followed by loss of metal (Gray et al, J. Chem. Soc. 2276 (1961); Kuenzle et al, Biochem. J. 130:1147 (1972); […], Nature 899 (1962)). The interaction of biliverdin and bilirubin with H2O, was also followed in 0.05 M tris buffer, pH 7.8. As observed for its metal complex, biliverdin undergoes reduction by H2O2 via bilirubin. Under pseudo-first order conditions (6 mM to 60 mM H2O2, 60 μM biliverdin), the second-order rate constant was k=3×10^-3 M^-1 s^-1. Bilirubin is more resistant to H2O2 than biliverdin or its metal complex. The disappearance of bilirubin was followed at 435 nm (Gray et al, J. Chem. Soc. 2268 (1961)). Under conditions given above and at 60 mM H2O2, about 40% of the biliverdin and 14% of bilirubin was degraded within 4.4 hours, and about 14% of the complex was degraded inside 80 min.

[3] = Stability in the presence of excess EDTA (uv/vis); type: physicochemical
Description: Uv/vis Spectroscopy. […] Also the effects of EDTA, H2O2, and the methanol/water ratio on the stability of the manganese(III) complex were examined. […] […] 79:699 (1960)). When needed the biliverdin and biliverdin dimethylester as well as their reduced forms bilirubin and bilirubin dimethylester were studied. […] In a week, at 25° C., only 14% of the complex dissociated. When the water content was increased to 43%, half the complex dissociated in a week.

Question: For “Manganese(III) Biliverdin IX Dimethylester [{Mn^IIIBVDME}2]”, which “growth of SOD-deficient E. coli” value ([1]; 13 μM, after 15 hours, SOD-proficient 100%, SOD-deficient without compound 16%) is on record?
Answer: Its value is 50%.

Question: And the “growth of SOD-deficient E. coli (in words)” value ([1]; 0.1 to 13 μM in minimal medium)?
Answer: The value was “markedly improved”.

Question: And the “effect on SOD-deficient E. coli growing under aerobic conditions (in words)” value ([1]; minimal (five amino acids) medium)?
Answer: The value was “significant protection”.

Question: What about the “fraction degraded by H2O2” value ([2]; 60 mM H2O2, inside 80 min) of the same substance?
Answer: Its value is “about 14%”.

Question: What about the “second-order rate constant k of H2O2 induced degradation” value ([2]; 90/10 v/v methanol/aqueous, pH* 7.9, 6 mM to 120 mM H2O2, 15 and 30 μM complex) of the same substance?
Answer: The value was 0.00064 M⁻¹ s⁻¹.

Question: What about the “stability in the presence of EDTA” value ([3]; 1 μM, 900-fold excess EDTA (0.9 mM), 2-4 hours, 25° C., methanol/aqueous (90/10), 0.05 M tris, pH* 7.9) of the same substance?
Answer: Its value is “stable”.

Question: And the “stability in the presence of EDTA” value ([3]; 20 μM, 900-fold excess of EDTA, pH 7.8)?
Answer: Its value is “stable”.
